Assay results as given in PMC7259466 (bioRxiv, 2020).
Read-outs that look alike come from different tables or passages of the source.

Columns and labels:
LC3B [1] = assay: LC3B immunostaining autophagy assay, average of four cell lines; format: cell-based; conditions: for EC50: 16 h, read-out: Autophagy EC50
SARS-CoV-2 [2] = conditions: similar CPE assay with SARS-CoV-2 in Vero-E6 cells; ref [61]; cited from earlier work
in vitro = conditions: African green monkey, CPE CC50, uninfected Vero E6, 72 h, Cell Titer-Glo
[3] = cited from earlier work; for Cmax: human plasma, clinically efficacious doses
Vero-E6 cells [4] = assay: Nuclei counts in autophagy assay in Vero-E6 cells; format: cell-based; conditions: for cytotoxicity based on nuclei counts: highest concentrations (50 μM for all except for ROC-325 at 25 μM)
Vero E6 cells = conditions: for cell toxicity: Vero E6, up to 30 μM; for cytotoxic: at all concentrations
SARS-CoV-2 [5] = format: cell-based, SARS CoV-2 (USA_WA1/2020); conditions: Vero-E6, up to 30 μM
LC3B [6] = assay: LC3B immunostaining autophagy assay in Vero-E6 cells; format: cell-based; conditions: ~16 h; for LC3B spot counts: Vero-E6, 50 μM – 0.02 μM
Cell = format: cell-based
Vero-E6 cells [7] = conditions: drug-repurposing screen in Vero-E6 cells; ref [61]; cited from earlier work
[8] = in monkey; ref [77]; cited from earlier work
LC3B [9] = assay: LC3B immunostaining autophagy assay in Huh-7.5 cells; format: cell-based, human
acidic organelles = assay: LysoTracker Deep Red staining assay in Vero-E6 cells; format: cell-based; conditions: Vero-E6, cell counts, highest concentration

| SMILES | EC50 (LC3B [1]) [µM] | IC50 (SARS-CoV-2 [2]) [µM] | CC50 (in vitro) [µM] | cytotoxicity based on nuclei counts (Vero-E6 cells [4]) | cell toxicity (Vero E6 cells) | cytotoxic (Vero E6 cells) | activity against SARS-CoV-2 CPE (SARS-CoV-2 [5]) | CC50 at 16 h (Cell) [µM] | CC50 (Vero-E6 cells [7]) [µM] | LC3B spot counts (LC3B [6]) | also measured |
| --- | --- | --- | --- | --- | --- | --- | --- | --- | --- | --- | --- |
| CCN(CC)CCCC(C)Nc1ccnc2cc(Cl)ccc12 (centres unmarked) [Chloroquine] | 3.29 ± 1.86 | 42 | > 30 | not cytotoxic | no associated cell toxicity | less than 50% |  |  |  |  | Vd ([3]; ref [78], [79]): 100 L/kg; bioavailable ([3]; ref [78], [79]): 75% |
| CN(C)CCCN1c2ccccc2CCc2ccc(Cl)cc21 [Clomipramine] |  |  | > 30 | not cytotoxic |  | less than 50% | completely prevent SARS-CoV-2 CPE | > 50 | > 30 |  | increasing LC3B (LC3B [1]; all cell lines except for Vero-E6): effective; submaximal increase of LC3B spot counts (LC3B [6]; Vero-E6, normalized to DMSO (0%) and CQ (100%)): 40%; Cmax ([3]; ref [76]): 290 nM; Vd ([3]; ref [76]): high; cytotoxicity (Vero E6 cells; at 30.0 μM): less than 20% |
| CCN(CC)CCNc1ccc(CO)c2sc3ccccc3c(=O)c12 [Hycanthone] | 7.35 ± 4.7 |  |  |  | cytotoxic at the highest concentrations |  | moderate levels of activity | 11.3 ± 2.73 |  | maximal spot counts | absorption [8]: well-absorbed; cells killed (Vero-E6 cells [4]; at 50 μM): approximately 60%; reduction of cell viability (Vero E6 cells; at 30 μM): ~100% |
| CCN(CCO)CCCC(C)Nc1ccnc2cc(Cl)ccc12 (centres unmarked) [Hydroxychloroquine, hydroxychloroquine] | 6.55 ± 6.67 | 9.21 | > 30 | not cytotoxic | no associated cell toxicity | less than 50% |  | > 50 |  |  | Cmax ([3]; ref [80]): 1500 nM; T1/2 ([3]; ref [80]): ~40 days; absorption ([3]; ref [80]): rapid and complete absorption |
| OC(c1cc(C(F)(F)F)nc2c(C(F)(F)F)cccc12)C1CCCCN1 (centres unmarked) [Mefloquine] |  | 7.11 |  | completely toxic | cytotoxic at the highest concentrations |  | moderate levels of activity | 18.4 ± 2.08 | > 18.5 | ineffective | EC50 (LC3B [9]; Homo sapiens, Huh7.5, read-out: Autophagy EC50): 7.3 µM; LC3B spot counts (LC3B [9]; Huh-7.5): increased LC3B spot counts even at low concentrations; toxicity in LysoTracker assay (acidic organelles): toxic at the highest concentration; Cmax ([3]; ref [81]): 4500 nM; cytotoxicity (Vero E6 cells; at 15.0 to 30.0 μM): 100% |
| CCC(CC)COC(=O)[C@H](C)N[P@](=O)(OC[C@H]1O[C@@](C#N)(c2ccc3c(N)ncnn23)[C@H](O)[C@@H]1O)Oc1ccccc1 [Remdesivir, remdesivir] |  |  |  |  | no apparent cytotoxicity |  |  |  |  |  |  |
